Common to all, as to assay type: in vivo, C. elegans
In one assay the test system is GFP::DAT-1. Briefly: Pdat-1::GFP::DAT-1 expression within DA neurons. The note with it: for Neurons with cell body and dendritic/axonal GFP: water control 70%; for Mean pixel intensity of cell bodies ± SEM (fluorescence intensity): water control 1970 ± 80, compounds at 1.85, 1.49, 1.86 mM.
In assay [1] the test system is worms containing Pdat-1::GFP+Pdat-1::torsinA+Pdat-1::torsinA (ΔE) after 6-OHDA exposure. Briefly: 6-OHDA dopaminergic neurodegeneration in worms with wt and mutant torsinA. Conditions: wt and mutant torsinA co-expressed; 6-OHDA insult. The source says:
Previous studies have established that the “CEP” and “ADE” mechanosensory neurons in C. elegans undergo readily discernable neuronal degeneration after treatment with the dopamine-selective neurotoxin 6-OHDA (Nass et al, 2002). The toxicity of 6-OHDA is mediated through the formation of reactive oxygen species by the generation of hydrogen peroxide and […] via a nonenzymatic auto-oxidation process (Kumar et al., 1995; Foley and Riederer, 2000). […] This degeneration can be monitored in living animals by coexpressing with green fluorescent protein and categorized into three temporally and morphologically distinct stages, including neuronal process blebbing, cell body rounding with process loss, and cell body loss. These characteristic changes reproducibly appear in this order within a few hours, recapitulating observations in MPTP-treated monkeys and in 6-OHDA-treated rats, in which damage to striatal terminals leads to retrograde changes and precedes that of SNpc cell bodies (Berger et al., 1991; Herkenham et al., 1991). The actions of torsin protein in 6-OHDA-mediated neurodegeneration has recently been shown (Cao et al., J Neurosci, 25(1):3801-3812). Animals were treated with various concentrations of 6-OHDA and neurodegeneration was followed over time, as worms develop and age, by co-expression of a dopamine GFP marker in these transparent animals.
C. elegans nematodes were grown at 25° C. on NGM plates as described by Brenner (Brenner, Genetics, 1974, 77: 71-94). Two transgenic C. elegans lines were used for primary screens of the Prestwick small molecule library. A transgenic worm line expressing Pdat-1::GFP; with both wild type (Pdat-1::torsinA) or mutant (Pdat-1:::torsinA(ΔE)). Torsin-A expresses a phenotype that results in visible neurodegeneration after treatment with 6-OHDA. Transgenic worms were plated on drug plates and progeny were studied for morphological changes in the 8 dopaminergic neurons present in C. elegans.
Drugs were administered to C. elegans according to a standard procedure (Rand and Johnson, Methods Cell Biol, 1995, 48: 187-204) by mixing the solubilized drug with the agar medium on which the worms are grown. This mode of administration allows the continuous exposure of worms to the drug.
Each drug was first dissolved in an appropriate solvent, followed by adding the drug solution into pre-autoclaved media, with the volume of drug solution already taken into account. All drugs were tested at 0.5 mg/ml initial concentration, a few of which were toxic to worms and then tested at 0.1 mg/ml or 0.025 mg/ml concentration. Each plate was seeded with 100 μl concentrated E. coli OP50 bacteria
Age-synchronized worms were obtained by treating gravid adults with 2% sodium hypochlorite and 0.5M NaOH to isolate embryos (Lewis Fleming, 1995). These embryos were grown for 30 h at 25° C. At the L3 stage, larvae were incubated with 10 mM (50 mM) 6-OHDA and 2 mM (or 10 mM) ascorbic acid for 1 h with gentle agitation every 10 minutes. (Nass et al., 2002). The worms were then washed and spread onto NGM plates seeded with bacteria (OP50) and scored at time points ranging from 2 to 72 h after 6-OHDA exposure.
Immediately after 6-OHDA treatment, worms containing the transgenes were selected under a fluorescence dissecting microscope, based on the presence of GFP, and transferred to a fresh NGM plate seeded with OP50. For each time point, 30-40 worms were applied to a 2% agarose pad and immobilized with 3 mM levamisole. Worms were examined under a Nikon Eclipse E800 epifluorescence microscope equipped with an Endow GFP filter cube (Chroma Technology, Rockingham, Vt.). For ease of analysis, only the four CEP DA neurons in the head of the worm were scored. […]

Assay [2] has as its system Pdat-1::GFP+Pdat-1::α-synuclein+Pdat-1:: torsinA (ΔE) worms. The assay can be described thus: α-synuclein toxicity assay, mutant torsinA. The source says: (§1) We have previously shown that torsinA can prevent dopamine (“DA”) neuron degeneration resulting from overexpression of α-synuclein in the DA neurons of C. elegans, while torsinA (“ΔE”) has a reduced neuroprotection (Cao et al., J Neurosci, 2005, 25(1): 3801-3812). Specifically, only 26.1±5.3% of the worms expressing Pdat-1::GFP+Pdat-1::α-synuclein maintained all 4 wildtype CEP DA neurons as 4 day adults while the percentages of the worms expressing Pdat-1::GFP+Pdat-1::α-synuclein+Pdat-1::torsinA and Pdat-1::GFP+Pdat-1::α-synuclein+Pdat-1:: torsinA (ΔE) are 57.3±1.6% and 42.2±7.3%, respectively (Cao et al., J Neurosci, 2005, 25(1): 3801-3812) (FIG. 8).
(§2) All molecules are coded by Prestwick Library number. TorsinA-dependent compounds identified from the aggregation assay have torsinA-specific effects and, therefore, are likely to function in the same manner in the α-synuclein toxicity assay. All three α-synuclein transgenic lines were exposed to the five torsinA-dependent compounds to determine their torsinA-specificity (FIG. 9). As expected, none of these compounds had any effect in Pdat-1::GFP+Pdat-1::α-synuclein when torsinA expression is absent.

Assay [3] has as its system protein misfolding and aggregation in transgenic worms. The assay can be described thus: Preventative assay of protein aggregation (drug from hatching to L2 stage). The note with it: exposure from hatching to L2 stage; scored at L3 and young adult. The procedure: To see the preventative effects of the candidate drug compounds on protein misfolding and aggregation, five gravid adult worms were placed onto each drug plate and grown at 20° C. for approximately 3 days. 35-40 Fl worms at L2 stage were picked and transferred to a control plate with the same concentration of control solvent compared to the drug plate. Thirty worms at L3 stage were counted for aggregate number 8 hours later. Thirty young adults were analyzed 32 hours later.
(§3) To calculate the scaled effectiveness of special regimen of drugs on worms based on standardized decrease in protein aggregates. The following formula was used: (A−B)/(A−C)×100%, where
(§4) A=number of aggregates for worms growing on solvent control plates
(§5) B=number of aggregates for worms grown on the specific drug plate for the entire life of the worms
C=number of aggregates for worms that received pre-L2 exposure and were then removed to solvent control plates
(§6) If the regimen has no effect, the value would equal 0%. Conversely, if the regimen was as effective as raising the worms on the drug for their entire life, the value would equal 100%.

Assay [4] has as its system worms containing Punc-54::Q82::GFP+Punc-54::torsinA+Punc54::torsinA (ΔE). Briefly: Screen for reduction of polyglutamine protein aggregates in worms with wt and mutant torsinA. Conditions: differentiated by Q82::GFP lines without torsinA, with wt torsinA or with mutant torsinA. The procedure: (§7) C elegans nematodes were grown at 20° C. on NGM plates as described by Brenner (Brenner, Genetics, 1974, 77: 71-94). Several transgenic C. elegans lines were used for primary screens of the Prestwick small molecule library. A transgenic worm line expressing Punc-54::Q82-GFP; with both wild type (“wt”) (Punc=54: :torsinA) or mutant (Punc-54::torsinA(ΔE)). Torsin-A expresses a phenotype that results in visible protein aggregation under fluorescent microscope. Transgenic worms were plated on drug plates and progeny were studied for a return to soluble protein.
(§8) Drugs were administered to C. elegans according to a standard procedure (Rand and Johnson, Methods Cell Biol, 1995, 48: 187-204), by mixing the solubilized drug with the agar medium on which the worms are grown. This mode of administration allows the continuous exposure of worms to the drug.
Each drug was first dissolved in an appropriate solvent, followed by adding the drug solution into pre-autoclaved media, with the volume of drug solution already taken into account. […] Each plate was seeded with 100 μl concentrated E. coli OP50 bacteria.
(§9) The screening assays used to identify the compounds use protein aggregation readouts to determine the specificities of molecular action. […]
(§10) The methods for the aggregate analysis assay are described in Caldwell et al. (Hum Mol Genetics, 2003, 12(3): 307-319). […] MetaMorph Software (Universal Imaging Inc.) was used for pseudocoloration of images, image overlay, and aggregate size quantitation. For each worm line analyzed, average aggregate size was determined by capturing images of all aggregates in the posterior region of 30 L3-staged animals (for Q82::GFP aggregates) or all aggregates in 30 adult animals/day (for Q19::GFP analyses) at 1000× magnification. […]
(§11) To see the effect of the candidate compounds on suppressing protein misfolding and aggregation, five gravid adult worms were placed onto each drug plate and grown at 20° C. for approximately 3 days. Thirty Fl worms at L3 stage and young adult stage were counted for aggregate number.

Assay [5] has as its system protein misfolding and aggregation in transgenic worms. The assay can be described thus: Corrective assay of protein aggregation (drug from L2 stage onward). Conditions: drug exposure from L2 stage onward; scored at L3 and young adult. The method, then: To see the corrective effect of the candidate drug compounds on protein misfolding and aggregation, five gravid adult worms were placed onto a solvent control plate and grown at 20° C. for approximately 3 days. 35-40 Fl worms at L2 stage were picked and transferred to a drug plate. Thirty worms at L3 stage were counted for aggregate number 8 hours later. Thirty young adults were analyzed 32 hours later.
as §3, §4, §5
C=number of aggregates for worms that received exposure from L2 stage (until adulthood)
as §6

Assay [6] relates to worms expressing Punc-54::Q82::GFP+Punc-54::torsinA with wt torsinA only. The assay can be described thus: Protein aggregate assay in worms with wt torsinA only. The method, then: as §7, §8
Each drug was first dissolved in an appropriate solvent, followed by adding the drug solution into pre-autoclaved media, with the volume of drug solution already taken into account. […]
as §9, §10, §11

Assay [7] concerns Pdat-1::GFP+Pdat-1::α-synuclein+Pdat-1::torsinA worms. Briefly: α-synuclein toxicity assay, wt torsinA.
Description: as §1, §2

Assay [8] has as its system transgenic worms containing the transgene Punc-54::Q82::GFP without any torsinA expression. Briefly: Protein aggregate assay in worms without torsinA expression. The procedure: C elegans nematodes were grown at 20° C. on NGM plates as described by Brenner (Brenner, Genetics, 1974, 77: 71-94). Several transgenic C. elegans lines were used for primary screens of the Prestwick small molecule library. A transgenic worm line expressing Punc-54::Q82-GFP; with both wild type (“wt”) (Punc=54: :torsinA) or mutant (Punc-54::torsinA(ΔE)). Torsin-A expresses a phenotype that results in visible protein aggregation under fluorescent microscope. Transgenic worms were plated on drug plates and progeny were studied for a return to soluble protein. […]
as §9, §10

Where [9] appears, read: Pdat-1::GFP::DAT-1, listed as Ciclopirox etnanolamine.

Counter-ions that a name gives are not always drawn.

In the case of `Cc1cc(C2CCCCC2)n(O)c(=O)c1.NCCO` [Ciclopirox ethanolamine], in the assay with GFP::DAT-1 (Pdat-1::GFP::DAT-1, water control 0%), the “Worms with no GFP” value worked out at 0%. In the assay with GFP::DAT-1 (Pdat-1::GFP::DAT-1, water control 30%), the “Neurons with cell body GFP only” value stood at 32.3%. In the assay with GFP::DAT-1 (Pdat-1::GFP::DAT-1), the “Neurons with cell body and dendritic/axonal GFP” value came out at 66.7%; the “Mean pixel intensity of cell bodies ± SEM (fluorescence intensity)” value worked out at 1923 A.U. Besides, in the assay with GFP::DAT-1 (setting [9]), the “Neurons with cell body and dendritic/axonal GFP” value turned out to be 66.7%; the “Mean pixel intensity of cell bodies ± SEM (fluorescence intensity)” value worked out at 1923 ± 85 A.U. Also, the “effect on GFP::DAT-1 level” value with GFP::DAT-1 (result in words) is “did not have any significant effect”. The “neuroprotection of dopaminergic neurons against 6-OHDA” value (shortened to “neuroprotection”) in [1] is recorded as “showed no neuroprotection”.

On to `Cc1onc(-c2ccccc2Cl)c1C(=O)N[C@@H]1C(=O)N2[C@@H]1SC(C)(C)[C@@H]2C(=O)O` [Compound 186, Cloxacillin sodium salt], for which, in [1], the “neuroprotection” value is recorded as “neuroprotective actions in this model, albeit to a lesser degree”.

`CCn1cc(C(=O)O)c(=O)c2cc3c(cc21)OCO3` [Compound 193, Oxolinic Acid]: in assay [2], the “enhanced DA neuron survival” value is listed as “no significant neuroprotection”. Moreover, the “preventative effect on protein aggregation” value in [3] was “seem to be beneficial”. In assay [4], the “Specificity in worm assay” value is listed as “wt torsinA”. The “corrective effect on protein aggregation” value in assay [5] is listed as “seem to be beneficial”. In addition, the “reduction of protein aggregation” value in assay [6] is “reduced protein aggregation”. The “enhanced wild type DA neuron survival” value in assay [7] was found to be 31.4±3.7%.

In the case of `CCCCOc1ccc(C(=O)CCN2CCCCC2)cc1` [Compound 264, Dyclonine HCl], the “reduction of protein aggregates” value in [8] is given as “reduced the presence of protein aggregates”.

For `CC1(C)S[C@@H]2[C@H](NC(=O)[C@H](N)c3ccc(O)cc3)C(=O)N2[C@H]1C(=O)O` [Compound 357, Amoxiciflin], in assay [1], the “neuroprotection” value was “neuroprotective actions in this model, albeit to a lesser degree”.

As to `CC1=C(C(=O)O)N2C(=O)[C@@H](NC(=O)[C@H](N)c3ccc(O)cc3)[C@H]2SC1` [Compound 434, Cefadroxil], the “neuroprotection” value in assay [1] was “neuroprotective actions to the same degree as compound 235”.

In the case of `CC1(C)S[C@@H]2[C@H](NC(=O)C(C(=O)O)c3ccccc3)C(=O)N2[C@H]1C(=O)O` (stereo partly shown) [Compound 703, Carbenicillin disodium salt], the “neuroprotection” value in assay [1] was “neuroprotective actions to the same degree as compound 235”.

(Values after patent US20070203079A1, “Methods of using small molecule compounds for neuroprotection” (priority 2005, published 2007).)
